Reference: ChEMBL document CHEMBL4706731, “Semisynthetic Derivatives of the Verticillin Class of Natural Products through Acylation of the C11 Hydroxy Group” (ACS Med Chem Lett, 2021)

Tests used:
Assay type in all cases: functional, cell-based
[1] = test system: MDA-MB-231; assay: Cytotoxicity against human MDA-MB-231 cells assessed as inhibition of cell proliferation measured after 72 hrs by CellTiter 96 AQueous One Solution Cell Proliferation assay; conditions: MDA-MB-231, 72 h
[2] = test system: OVCAR-3; assay: Cytotoxicity against human OVCAR-3 cells assessed as inhibition of cell proliferation measured after 72 hrs by CellTiter 96 AQueous One Solution Cell Proliferation assay; conditions: OVCAR-3, 72 h
[3] = test system: MDA-MB-435; assay: Cytotoxicity against human MDA-MB-435 cells assessed as inhibition of cell proliferation measured after 72 hrs by CellTiter 96 AQueous One Solution Cell Proliferation assay; conditions: MDA-MB-435, 72 h

Structure (SMILES) | IC50 [1] [nM] | IC50 [2] [nM] | IC50 [3] [nM]
CN1C(=O)[C@]23SS[C@@]1(C)C(=O)N2[C@H]1Nc2ccccc2[C@@]1([C@@]12c4ccccc4N[C@@H]1N1C(=O)[C@]4(C)SS[C@]1(C(=O)N4C)[C@H]2O)[C@@H]3O | 23 | 36 | 18
CN1C(=O)[C@]23SS[C@@]1(C)C(=O)N2[C@H]1Nc2ccccc2[C@@]1([C@@]12c4ccccc4N[C@@H]1N1C(=O)[C@]4(C)SS[C@]1(C(=O)N4C)[C@H]2OC(=O)CCC(=O)O)[C@@H]3O | 12 | 33 | 9
CC(=O)O[C@H]1C(=O)[C@@]2(C)[C@H]([C@H](OC(=O)c3ccccc3)[C@]3(O)C[C@H](OC(=O)[C@H](O)[C@@H](NC(=O)c4ccccc4)c4ccccc4)C(C)=C1C3(C)C)[C@]1(OC(C)=O)CO[C@@H]1C[C@@H]2O [PACLITAXEL] | 0.6 | 1.8 | 0.3
CCCC(=O)O[C@H]1[C@]2([C@@]34c5ccccc5N[C@@H]3N3C(=O)[C@]5(CC)SS[C@]3(C(=O)N5C)[C@H]4O)c3ccccc3N[C@@H]2N2C(=O)[C@]3(CC)SS[C@]12C(=O)N3C | 17 | 25 | 19
CC[C@@]12SS[C@]3(C(=O)N1C)[C@@H](O)[C@]1([C@@]45c6ccccc6N[C@@H]4N4C(=O)[C@]6(CC)SS[C@]4(C(=O)N6C)[C@H]5O)c4ccccc4N[C@@H]1N3C2=O | 31 | 229 | 44
CC[C@@]12SS[C@]3(C(=O)N1C)[C@@H](O)[C@]1([C@@]45c6ccccc6N[C@@H]4N4C(=O)[C@]6(CC)SS[C@]4(C(=O)N6C)[C@H]5OS(=O)(=O)c4ccc(F)cc4)c4ccccc4N[C@@H]1N3C2=O | 49 | 79 | 31
CC[C@@]12SS[C@]3(C(=O)N1C)[C@@H](O)[C@]1([C@@]45c6ccccc6N[C@@H]4N4C(=O)[C@]6(CC)SS[C@]4(C(=O)N6C)[C@H]5OC(=O)NC)c4ccccc4N[C@@H]1N3C2=O | 21 | 68 | 22
CC[C@@]12SS[C@]3(C(=O)N1C)[C@@H](O)[C@]1([C@@]45c6ccccc6N[C@@H]4N4C(=O)[C@]6(CC)SS[C@]4(C(=O)N6C)[C@H]5OC(=O)CCC(=O)O)c4ccccc4N[C@@H]1N3C2=O | 13 | 133 | 21
CC[C@@]12SS[C@]3(C(=O)N1C)[C@@H](O)[C@]1([C@@]45c6ccccc6N[C@@H]4N4C(=O)[C@]6(CC)SS[C@]4(C(=O)N6C)[C@H]5OC(C)=O)c4ccccc4N[C@@H]1N3C2=O | 21 | 96 | 41
CC[C@@]12SS[C@]3(C(=O)N1C)[C@@H](O)[C@]1([C@@]45c6ccccc6N[C@@H]4N4C(=O)[C@]6(CC)SS[C@]4(C(=O)N6C)[C@H]5OC(=O)N(C)C)c4ccccc4N[C@@H]1N3C2=O | 12 | 19 | 9
CCOC(=O)O[C@H]1[C@]2([C@@]34c5ccccc5N[C@@H]3N3C(=O)[C@]5(CC)SS[C@]3(C(=O)N5C)[C@H]4O)c3ccccc3N[C@@H]2N2C(=O)[C@]3(CC)SS[C@]12C(=O)N3C | 7 | 137 | 11
CC[C@@]12SS[C@]3(C(=O)N1C)[C@@H](O)[C@]1([C@@]45c6ccccc6N[C@@H]4N4C(=O)[C@]6(CC)SS[C@]4(C(=O)N6C)[C@H]5OC(=O)C4CC4)c4ccccc4N[C@@H]1N3C2=O | 12 | 105 | 24
CC[C@@]12SS[C@]3(C(=O)N1C)[C@@H](O)[C@]1([C@@]45c6ccccc6N[C@@H]4N4C(=O)[C@]6(CC)SS[C@]4(C(=O)N6C)[C@H]5OC(=O)C(C)(C)C)c4ccccc4N[C@@H]1N3C2=O | 20 | 72 | 21
